Experimental data taken from patent US8975417B2, “Pyrazolopyrrolidine derivatives and their use in the treatment of disease” (Novartis AG, priority 2013, dated 2015).

Key:
THP-1 cells = assay: Cell growth inhibition assay (CellTiter-Glo), THP-1; type: cell-based; settings: Homo sapiens, read-out: THP-1 TGI
Description: (§1) Cell Growth Inhibition Assay
(§2) The human leukemia cell lines MV-4-11, THP-1 and K-562 were employed to characterize the effect of BET inhibitors on cellular proliferation and viability. Cells were obtained from the American Type Culture Collection (ATCC) and cultured at 37° C. in a humidified 5% CO2 incubator in the following media: MV-4-11: DMEM high glucose (Animed #1-26F01-I), 10% FCS (Animed #2-01F26-I), 4 mM L-Glutamine (Animed #5-10K50), 1 mM Sodium Pyruvate (Animed # G03625P), 1× Penicillin-Streptomycin (Animed # F12478P); K-562: Iscove's MEM (Animed #1-28F16-I), 10% FCS (Animed #2-01F26-I), 4 mM L-Glutamine (Animed #5-10K50), 1× Penicillin-Streptomycin (Animed # F12478P); THP-1: RPMI-1640 (Animed #1-41F01-I), 10% FCS (Animed #2-01F26-I), 2 mM L-Glutamine (Animed #5-10K50), 10 mM HEPES (Animed #5-31F100), 1 mM Sodium Pyruvate (Animed # G03625P), 1× Penicillin-Streptomycin (Animed # F12478P). The AML lines MV-4-11 and THP-1 are very sensitive to BET inhibitors and show massive cell death upon BET inhibition (Zuber et al., Nature, 478 (2011), 524-8). Compound-mediated suppression of cell proliferation/viability was assessed by quantification of cellular ATP levels using the CellTiter-Glo (CTG) reagent (Promega). Briefly, cells were seeded in 20 μl fresh medium into 384-well plates, followed by addition of 5 μL medium containing compound dilutions at 5-fold their final intended concentration. Dose-response effects were assessed by 3-fold serial dilutions of the test compound, starting at 10 μM. Following incubation of the cells for days at 37° C. and 5% CO2, the effect of inhibitors on cell viability was quantified following addition of 20 μl CTG and luminescence quantification (integration time: 100 ms) as per vendor manual, using a correspondingly equipped Tecan M200 multi-mode platereader (TECAN, Switzerland). For data analysis, the assay background value determined in wells containing medium, but no cells, was subtracted from all data points. To enable differentiation of cytotoxic from cytostatic compounds, the number of viable cells is assessed relative to that observed at the time of compound addition using a separate cell plate (day 0). The effect of a particular test compound concentration on cell proliferation/viability is expressed as percentage of the background- and day 0-corrected luminescence reading obtained for cells treated with vehicle only (DMSO, 0.1% final concentration), which is set as 100%, whereas that luminescence reading for wells containing medium is set as −100%. Compound concentrations leading to half-maximal (IC50) and total growth inhibition (TGI) were determined using standard four parameter curve fitting.

His-Brd4(44-477) = His-Brd4(44-477) (Homo sapiens (Human), UniProt O60885); assay: TR-FRET in-vitro binding assay for BRD4; settings: biochemical
Outline: (§3)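 Assay buffer HEPES pH 7.5/NaCl/Tween20/BSA; protein solution 45 nM, peptide solution 60 nM acetyl-H4 (AcK5,8,12,16). Incubated 30 °C for 35 min; Eu-anti-His6 and SA-APC detection, TR-FRET read.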

His-Brd2(60-472) = His-Brd2(60-472) (Homo sapiens (Human), UniProt P25440); assay: TR-FRET in-vitro binding assay for BRD2; settings: biochemical
Sequence of His-Brd2(60-472) (P25440 60-472): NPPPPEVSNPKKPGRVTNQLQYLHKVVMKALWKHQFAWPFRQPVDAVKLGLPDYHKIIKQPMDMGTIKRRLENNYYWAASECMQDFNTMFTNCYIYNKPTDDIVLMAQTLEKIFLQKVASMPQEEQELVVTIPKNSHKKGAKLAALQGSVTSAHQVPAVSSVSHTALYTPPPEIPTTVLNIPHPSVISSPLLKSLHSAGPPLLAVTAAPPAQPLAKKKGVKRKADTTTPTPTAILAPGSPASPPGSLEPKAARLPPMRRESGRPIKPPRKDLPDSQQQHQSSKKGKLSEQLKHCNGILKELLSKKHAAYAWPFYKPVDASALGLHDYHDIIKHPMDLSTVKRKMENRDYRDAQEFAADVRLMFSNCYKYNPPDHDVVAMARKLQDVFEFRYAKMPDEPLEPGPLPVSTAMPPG
Outline: as §3

K-562 cells = assay: Cell growth inhibition assay (CellTiter-Glo), K-562; type: cell-based, human; settings: Homo sapiens, K562, read-out: K-562 TGI
Description: as §1, §2

His-Brd3(20-477) = His-Brd3(20-477) (Homo sapiens (Human), UniProt Q15059); assay: TR-FRET in-vitro binding assay for BRD3; settings: biochemical
Sequence of His-Brd3(20-477) (Q15059 20-477): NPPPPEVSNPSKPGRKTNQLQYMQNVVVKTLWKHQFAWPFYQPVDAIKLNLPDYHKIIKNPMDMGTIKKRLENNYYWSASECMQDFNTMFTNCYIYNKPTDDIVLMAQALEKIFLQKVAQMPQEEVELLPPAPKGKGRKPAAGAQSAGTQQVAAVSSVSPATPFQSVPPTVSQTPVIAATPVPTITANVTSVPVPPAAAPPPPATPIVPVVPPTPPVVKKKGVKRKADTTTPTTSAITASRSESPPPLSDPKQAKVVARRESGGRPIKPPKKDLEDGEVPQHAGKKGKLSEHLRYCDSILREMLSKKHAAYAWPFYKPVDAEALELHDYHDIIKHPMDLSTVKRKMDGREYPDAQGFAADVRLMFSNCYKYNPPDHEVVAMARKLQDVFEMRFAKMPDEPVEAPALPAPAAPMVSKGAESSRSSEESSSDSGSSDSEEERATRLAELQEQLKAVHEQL
Outline: as §3

[1] = biological target: His-CREBBP (1081-1197) bromodomain (Homo sapiens (Human), UniProt Q92793); assay: AlphaScreen in-vitro binding assay for CREBBP; settings: biochemical
Sequence of His-CREBBP (1081-1197) bromodomain (Q92793 1081-1197): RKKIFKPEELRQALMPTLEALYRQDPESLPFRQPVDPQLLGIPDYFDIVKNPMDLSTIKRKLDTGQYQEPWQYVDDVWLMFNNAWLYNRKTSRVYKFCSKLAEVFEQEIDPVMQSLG
Outline: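 Ni-chelate acceptor and streptavidin donor beads (45 µg/mL each, in 50 mM HEPES pH 7.5, 150 mM NaCl, 0.02% BSA) were then added for 60 min at room temperature. IC50 came from 8-point non-linear regression.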

MV-4-11 cells = assay: Cell growth inhibition assay (CellTiter-Glo), MV-4-11; type: cell-based; settings: Homo sapiens, MV4-11, read-out: MV-4-11 TGI
Description: as §1, §2

Compound | IC50 (His-Brd4(44-477)) | IC50 (His-Brd2(60-472)) | IC50 (His-Brd3(20-477)) | IC50 [1] | IC (total growth inhibition) (THP-1 cells) | IC (total growth inhibition) (K-562 cells) | IC (total growth inhibition) (MV-4-11 cells)
Cc1cc(N2C(=O)c3c(c(C(F)(F)F)nn3C3CC3)C2c2ccc(Cl)cc2)cn(C)c1=O (stereo not shown) [Example 45, 4-(4-chlorophenyl)-1-cyclopropyl-5-(1,5-dimethyl-6-oxo-1,6-dihydropyridin-3-yl)-3-(trifluoromethyl)-4,5-dihydropyrrolo[3,4-c]pyrazol-6(1H)-one] | 85 nM | 60 nM | 100 nM | 4800 nM | 0.698 µM | > 10 µM | 0.373 µM
COc1ncc(-n2nc3c(c2C(C)C)C(c2ccc(Cl)cc2)N(c2cc(C)c4onc(C)c4c2)C3=O)c(OC)n1 (stereo not shown) [Example 46, 4-(4-chlorophenyl)-2-(2,4-dimethoxypyrimidin-5-yl)-5-(3,7-dimethylbenzo[d]-isoxazol-5-yl)-3-isopropyl-4,5-dihydropyrrolo[3,4-c]pyrazol-6(2H)-one] | 87 nM | 130 nM | 100 nM | 4700 nM | 0.323 µM | > 10 µM | 0.166 µM
COc1ncc(-n2nc3c(c2C(F)(F)F)C(c2ccc(Cl)cc2)N(c2cc(Cl)c(=O)n(C)c2)C3=O)c(OC)n1 (stereo not shown) [Example 47, 5-(5-chloro-1-methyl-6-oxo-1,6-dihydropyridin-3-yl)-4-(4-chlorophenyl)-2-(2,4-dimethoxypyrimidin-5-yl)-3-(trifluoromethyl)-4,5-dihydropyrrolo[3,4-c]pyrazol-6(2H)-one] | 270 nM | 210 nM | 280 nM | 1500 nM | 0.755 µM | > 10 µM | 0.158 µM
COc1ncc(-n2nc3c(c2C)C(c2ccc(Cl)cc2)N(c2cc(C)c(=O)n(C)c2)C3=O)c(OC)n1 (stereo not shown) [Example 56, 4-(4-chlorophenyl)-2-(2,4-dimethoxypyrimidin-5-yl)-5-(1,5-dimethyl-6-oxo-1,6-dihydropyridin-3-yl)-3-methyl-4,5-dihydropyrrolo[3,4-c]pyrazol-6(2H)-one] | 95 nM | 69 nM | 61 nM | 560 nM | 0.124 µM | > 10 µM | 0.0981 µM

More lines, main results first:

IC50 (His-Brd4(44-477)) | IC50 (His-Brd2(60-472)) | IC50 (His-Brd3(20-477)) | IC50 [1] | Compound | IC (total growth inhibition) (THP-1 cells) | IC (total growth inhibition) (K-562 cells) | IC (total growth inhibition) (MV-4-11 cells)
120 nM | 270 nM | 130 nM | 6800 nM | Cc1nn(C)c2c1C(c1ccc(Cl)cc1)N(c1cc(C)c(=O)n(C)c1)C2=O (stereo not shown) [Example 57, 4-(4-chlorophenyl)-5-(1,5-dimethyl-6-oxo-1,6-dihydropyridin-3-yl)-1,3-dimethyl-4,5-dihydropyrrolo[3,4-c]pyrazol-6(1H)-one] | 0.24 µM | > 10 µM | 0.109 µM
410 nM | 560 nM | 290 nM | 8200 nM | Cc1nn(C)c2c1C(c1ccc(Cl)cc1)N(c1cc(Cl)c(=O)n(C)c1)C2=O (stereo not shown) [Example 58, 5-(5-chloro-1-methyl-6-oxo-1,6-dihydropyridin-3-yl)-4-(4-chlorophenyl)-1,3-dimethyl-4,5-dihydropyrrolo[3,4-c]pyrazol-6(1H)-one] | 0.38 µM | > 10 µM | 0.157 µM
390 nM | 610 nM | 480 nM | 7300 nM | COc1nccc(-n2nc(C)c3c2C(=O)N(c2cc(C)c(=O)n(C)c2)C3c2ccc(Cl)cc2)n1 (stereo not shown) [Example 59, 4-(4-chlorophenyl)-5-(1,5-dimethyl-6-oxo-1,6-dihydropyridin-3-yl)-1-(2-methoxypyrimidin-4-yl)-3-methyl-4,5-dihydropyrrolo[3,4-c]pyrazol-6(1H)-one] | 0.598 µM | > 10 µM | 0.325 µM
